Data published in patent US10278975B2, “Serine/threonine kinase inhibitors” (GENENTECH, INC., priority 2013, dated 2019).

tested on: PMA-stimulated P90RSK(Ser380) phosphorylation in HepG2 cells; assay: Cellular P90RSK(Ser380) Phosphorylation Assay; assay type: cell-based; details: Homo sapiens, 1.5 hour compound incubation, PMA 100 ng/mL 30 min, normalized to GAPDH, read-out: P-P90RSK (S380) IC50
Procedure: Cellular P90RSK(Ser380) Phosphorylation Assay
Inhibition of PMA-stimulated P90RSK(Ser380) phosphorylation was determined by the following in vitro cellular mechanistic assay, which comprises incubating cells with a compound for 1.5 hours and quantifying fluorescent pP90RSK(Ser380) signal on fixed cells and normalizing to GAPDH signal.
Materials and Methods: HepG2 cells were obtained from ATCC and grown in DMEM supplemented with 10% fetal bovine serum. Cells were plated in 96-well plates at 35,000 cells/well and allowed to attach overnight at 37° C./5% CO2. Diluted compounds were then added at a final concentration of 0.5% DMSO. After 1.5 hour compound incubation, cells were stimulated with the addition of PMA (phorbol 12-myristate 13-acetate) at a final concentration of 100 ng/mL; the PMA stimulation was a 30-minute incubation at 37° C./5% CO2. After the 30-minute PMA stimulation, cells were washed with PBS and fixed in 3.7% formaldehyde in PBS at room temperature for 15-20 minutes. This was followed by another wash in PBS and then permeabilization in 100% MeOH at room temperature for 10-15 minutes. Following the permeabilization incubation, cells were washed in PBS/0.05% Tween-20, followed by a block in Odyssey blocking buffer (LI-COR Biosciences) for at least 1 hour. Antibodies to phosphorylated P90RSK(Ser380) (Cell Signaling #9335, rabbit monoclonal) and GAPDH (Fitzgerald 10R-G109a, mouse monoclonal) were added to the cells and incubated overnight at 4° C. pP90RSK(Ser380) antibody was used at a 1:250 dilution; GAPDH was used at a 1:10,000 dilution. After washing with PBS/0.05% Tween-20, the cells were incubated with fluorescently-labeled secondary antibodies (Anti-rabbit-Alexa Flour680, Invitrogen Cat#A21109; Anti-mouse-IRDye800CW, Rockland Inc. Cat#610-131-121) for 1 hour. Both secondary antibodies were used at a 1:1000 dilution. Cells were then washed and analyzed for fluorescence at both wavelengths using the Odyssey Infrared Imaging System (LI-COR Biosciences). Phosphorylated P90RSK(Ser380) signal was normalized to GAPDH signal. Representative date is in TABLE II (infra).

Structure (SMILES) | IC50
CN1C(=O)N(Cc2ccccc2)c2nnc3cc(-c4ccnc(Nc5ccnn5C)n4)cc1n23 [Compound I-28, 3-benzyl-5-methyl-7-(2-((1-methyl-1H-pyrazol-5-yl)amino)pyrimidin-4-yl)-3H-1,2,2a^1,3,5-pentaazaacenaphthylen-4(5H)-one] | 5.05 nM
Cn1nccc1Nc1nccc(-c2cc3n4c(nnc4c2)[C@@H](COCc2ccccc2)CCO3)n1 [(S) I-29, 4-(9-((benzyloxy)methyl)-8,9-dihydro-7H-6-oxa-1,2,2a^1-triazabenzo[cd]azulen-4-yl)-N-(1-methyl-1H-pyrazol-5-yl)pyrimidin-2-amine] | 7.94 nM
Cn1nccc1Nc1nccc(-c2cc3n4c(nnc4c2)[C@H](Oc2ccc(F)cc2)CCO3)n1 [(R) I-66, 4-(9-(4-fluorophenoxy)-8,9-dihydro-7H-6-oxa-1,2,2a^1-triazabenzo[cd]azulen-4-yl)-N-(1-methyl-1H-pyrazol-5-yl)pyrimidin-2-amine] | 1 nM
Cn1nccc1Nc1cc(-c2cc3n4c(nnc4c2)[C@@H](Cc2ccc(Cl)cc2)CO3)ccn1 [(R) I-48, 4-(3-(4-chlorobenzyl)-3,4-dihydro-5-oxa-1,2,2a^1-triazaacenaphthylen-7-yl)-N-(1-methyl-1H-pyrazol-5-yl)pyridin-2-amine] | 1.73 nM
Cn1nccc1Nc1cc(-c2cc3n4c(nnc4c2)[C@@H](Cc2ccccc2)CN3)ccn1 [(S) I-7, 4-(3-benzyl-4,5-dihydro-3H-1,2,2a^1,5-tetraazaacenaaphthylen-7-yl)-N-(1-methyl-1H-pyrazol-5-yl)pyridin-2-amine] | 3.87 nM
Cn1nccc1Nc1nccc(-c2cc3n4c(nnc4c2)[C@@H](Cc2ccc(F)cc2)CN3)n1 [(S) I-21, 4-(3-(4-fluorobenzyl)-4,5-dihydro-3H-1,2,2a^1,5-tetraazaacenaphthylen-7-yl)-N-(1-methyl-1H-pyrazol-5-yl)pyrimidin-2-amine] | 4.32 nM
CN1C(=O)C[C@H](Cc2ccc(Cl)cc2)c2nnc3cc(-c4ccnc(Nc5ccnn5C)n4)cc1n23 [(S) I-22, 9-(4-chlorobenzyl)-6-methyl-4-(2-((1-methyl-1H-pyrazol-5-yl)amino)pyrimidin-4-yl)-8,9-dihydro-1,2,2a^1,6-tetraazabenzo[cd]azulen-7(6H)-one] | 1.41 nM
Cn1nccc1Nc1nccc(-c2cc3n4c(nnc4c2)[C@@H](Cn2cc(C(F)(F)F)cn2)CCO3)n1 [(R) I-73, N-(1-methyl-1H-pyrazol-5-yl)-4-(9-((4-(trifluoromethyl)-1H-pyrazol-1-yl)methyl)-8,9-dihydro-7H-6-oxa-1,2,2a^1-triazabenzo[cd]azulen-4-yl)pyrimidin-2-amine] | 4.47 nM
Cn1nccc1Nc1nccc(-c2cc3n4c(nnc4c2)[C@@H](Cc2ccc(Cl)cc2)CCO3)n1 [(S) I-36, 4-(9-(4-chlorobenzyl)-8,9-dihydro-7H-6-oxa-1,2,2a^1-triazabenzo[cd]azulen-4-yl)-N-(1-methyl-1H-pyrazol-5-yl)pyrimidin-2-amine] | 2.45 nM
Cn1nccc1Nc1nccc(-c2cc3n4c(nnc4c2)[C@@H](Cc2ccccc2)CO3)n1 [(R) I-15, 4-(3-benzyl-3,4-dihydro-5-oxa-1,2,2a^1-triazaacenaphthylen-7-yl)-N-(1-methyl-1H-pyrazol-5-yl)pyrimidin-2-amine] | 2.91 nM
